From patent publication US7897601B2, “Cannabinoid receptor modulators” (Intervet, Inc., priority 2006, dated 2011)

Molecular target: T1, cannabinoid CB1 (Homo sapiens, UniProt P21554)
T1 construct: purchased
Experiment: Competition binding assay for cannabinoid CB1 affinity (3H-CP55,940 displacement)
Description: Competition binding assays for cannabinoid CB1 and CB2 affinity were performed by incubating commercially purchased membranes prepared from cells expressing each receptor subtype (8 μg pro) with 0.5 nM ^3H-CP55,940, a non-selective cannabinoid agonist, along with concentrations of drug ranging from 0.0001-3 μM in Buffer A (5 mM MgCl2, 2.5 mM EDTA and […] BSA). Non-specific binding was defined in the presence of 10 μM CP55,940. For saturation studies, concentrations of ^3H-CP55,940 ranging from 0.1-5 nM were incubated with membranes in the presence and absence of 10 μM CP55,940. Assays were terminated after incubation for 1½ hours by rapid filtration onto 0.3% polyethylenamine treated GF/C filterplates using a BRANDEL cell harvester. […]
The dissociation constant (Kd) of ^3H-CP55,940 at the CB1 and CB2 receptor were determined by plotting specific binding at each concentration of radioligand, and analysis by non-linear regression. For competition studies, the concentration of each drug that inhibited 50 percent of ^3H-CP55,940 binding (IC50) was determined by non-linear regression analysis of the radioligand displacement curves. Affinity constants (Ki) were calculated using the equation derived by Cheng and Prusoff (1973), defined as: IC50/1+[conc. ligand/Kd].

T1 sequence (P21554 whole entry): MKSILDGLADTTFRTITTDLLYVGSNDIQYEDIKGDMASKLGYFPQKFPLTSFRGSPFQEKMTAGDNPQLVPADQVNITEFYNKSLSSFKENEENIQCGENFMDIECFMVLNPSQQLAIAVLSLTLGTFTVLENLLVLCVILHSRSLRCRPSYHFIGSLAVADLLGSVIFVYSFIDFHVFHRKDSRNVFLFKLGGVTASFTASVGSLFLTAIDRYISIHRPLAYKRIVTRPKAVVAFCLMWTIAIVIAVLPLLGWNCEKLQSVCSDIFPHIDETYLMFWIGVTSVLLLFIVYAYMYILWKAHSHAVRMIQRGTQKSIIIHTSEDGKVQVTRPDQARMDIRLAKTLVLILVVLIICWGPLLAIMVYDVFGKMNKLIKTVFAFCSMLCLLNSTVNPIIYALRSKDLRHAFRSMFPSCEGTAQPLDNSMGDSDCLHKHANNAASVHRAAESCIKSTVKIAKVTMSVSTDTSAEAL

O=C(NC1CCCC1)C1CCC(c2ccc(Cl)cc2)=C(c2ccc(Cl)cc2)C1 (stereo not shown) [Compound 180]
Ki: 1 to 10 nM
